Each block holds one molecule with its values, some of them ahead of it.
Tests used:
[1] = molecular target: T1, Rap guanine nucleotide exchange factor 3 (Homo sapiens, UniProt O95398); experiment: Antagonist activity at recombinant human full length EPAC1 assessed as inhibition of EPAC1-mediated Rap1B (1 to 167 residues)-BODIPY GDP nucleotide exchange activity in presence of 20 uM cAMP
T1 sequence (O95398 whole entry): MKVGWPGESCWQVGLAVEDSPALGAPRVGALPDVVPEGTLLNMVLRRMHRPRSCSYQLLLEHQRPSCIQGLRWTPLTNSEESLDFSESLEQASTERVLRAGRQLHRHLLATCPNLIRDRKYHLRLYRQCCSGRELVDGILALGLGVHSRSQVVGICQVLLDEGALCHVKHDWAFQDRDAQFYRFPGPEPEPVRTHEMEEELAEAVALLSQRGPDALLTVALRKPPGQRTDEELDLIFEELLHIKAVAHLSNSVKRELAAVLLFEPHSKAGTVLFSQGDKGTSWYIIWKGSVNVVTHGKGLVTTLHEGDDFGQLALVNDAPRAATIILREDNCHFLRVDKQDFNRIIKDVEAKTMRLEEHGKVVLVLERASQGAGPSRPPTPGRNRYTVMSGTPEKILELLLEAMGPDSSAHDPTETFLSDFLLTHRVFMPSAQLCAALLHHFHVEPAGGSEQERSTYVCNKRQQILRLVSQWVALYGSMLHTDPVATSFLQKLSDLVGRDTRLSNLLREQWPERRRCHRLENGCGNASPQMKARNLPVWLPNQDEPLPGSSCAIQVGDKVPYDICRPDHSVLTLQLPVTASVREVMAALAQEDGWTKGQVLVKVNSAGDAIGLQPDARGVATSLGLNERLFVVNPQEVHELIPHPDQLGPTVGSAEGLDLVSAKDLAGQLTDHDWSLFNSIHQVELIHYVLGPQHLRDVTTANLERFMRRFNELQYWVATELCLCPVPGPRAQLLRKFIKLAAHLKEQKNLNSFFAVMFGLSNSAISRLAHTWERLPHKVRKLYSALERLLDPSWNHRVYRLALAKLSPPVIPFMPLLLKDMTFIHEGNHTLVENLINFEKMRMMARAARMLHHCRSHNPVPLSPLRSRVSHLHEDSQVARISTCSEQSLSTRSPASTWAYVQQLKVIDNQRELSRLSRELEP

[2] = molecular target: T2, Rap guanine nucleotide exchange factor 4 (Mus musculus, UniProt Q9EQZ6); experiment: Antagonist activity at mouse EPAC2 assessed as inhibition of EPAC2-mediated Rap1B (1 to 167 residues)-BODIPY GDP nucleotide exchange activity
T2 sequence (Q9EQZ6 whole entry): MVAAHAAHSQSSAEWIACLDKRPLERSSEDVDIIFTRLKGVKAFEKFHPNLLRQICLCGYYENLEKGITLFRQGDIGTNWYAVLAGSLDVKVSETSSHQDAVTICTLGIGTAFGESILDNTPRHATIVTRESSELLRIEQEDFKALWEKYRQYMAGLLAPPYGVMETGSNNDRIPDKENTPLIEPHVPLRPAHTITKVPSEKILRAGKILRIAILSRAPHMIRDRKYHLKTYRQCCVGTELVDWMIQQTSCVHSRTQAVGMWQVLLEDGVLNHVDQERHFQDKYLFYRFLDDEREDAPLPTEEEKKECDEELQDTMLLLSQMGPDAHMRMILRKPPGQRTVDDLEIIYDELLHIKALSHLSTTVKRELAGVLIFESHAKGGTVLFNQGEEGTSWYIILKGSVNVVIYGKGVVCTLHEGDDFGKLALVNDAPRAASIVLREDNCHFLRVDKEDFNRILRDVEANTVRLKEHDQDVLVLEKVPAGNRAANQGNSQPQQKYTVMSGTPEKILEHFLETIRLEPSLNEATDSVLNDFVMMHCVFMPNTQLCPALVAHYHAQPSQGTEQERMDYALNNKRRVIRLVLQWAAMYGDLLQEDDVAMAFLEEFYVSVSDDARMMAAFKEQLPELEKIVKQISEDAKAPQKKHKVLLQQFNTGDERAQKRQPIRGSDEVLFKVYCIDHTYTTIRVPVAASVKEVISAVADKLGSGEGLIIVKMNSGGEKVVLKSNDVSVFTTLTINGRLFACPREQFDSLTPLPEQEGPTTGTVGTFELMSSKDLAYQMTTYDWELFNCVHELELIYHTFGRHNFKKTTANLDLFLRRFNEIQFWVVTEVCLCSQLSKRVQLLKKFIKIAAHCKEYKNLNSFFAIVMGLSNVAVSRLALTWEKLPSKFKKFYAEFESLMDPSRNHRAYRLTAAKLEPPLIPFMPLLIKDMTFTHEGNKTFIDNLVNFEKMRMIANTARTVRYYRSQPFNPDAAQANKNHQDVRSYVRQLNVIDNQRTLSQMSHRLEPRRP

[3] = Ratio of IC50 for recombinant human full length EPAC1 to IC50 for mouse EPAC2

SMILES: CC(C)(C)c1ccc(-c2cc(C(=O)/C(C#N)=N/Nc3cccc(Cl)c3)no2)cc1
IC50 [1]: 8.6 µM

SMILES: N#C/C(=N\Nc1ccc(C(F)(F)F)c(Cl)c1)C(=O)c1noc2ccccc12
IC50 [1]: 3 µM
IC50 [2]: 2.2 µM

SMILES: N#C/C(=N\Nc1cccc(Cl)c1)C(=O)c1cc(-c2ccccc2)on1
IC50 [1]: > 150 µM

SMILES: N#C/C(=N\Nc1ccc(Cl)c(C(F)(F)F)c1)C(=O)c1noc2ccccc12
IC50 [1]: 2.7 µM
IC50 [2]: 1.9 µM

SMILES: N#C/C(=N\Nc1cc(Cl)cc(C(F)(F)F)c1)C(=O)c1noc2ccccc12
IC50 [1]: 4.6 µM
IC50 [2]: 2.2 µM

SMILES: COc1ccc(-c2cc(C(=O)/C(C#N)=N/Nc3ccc(Cl)c(C(F)(F)F)c3)no2)cc1
IC50 [2]: 4.5 µM

SMILES: N#C/C(=N\Nc1cc(Cl)cc(C(F)(F)F)c1)C(=O)c1cc(-c2ccco2)on1
IC50 [1]: 3.6 µM
IC50 [2]: 2.2 µM

SMILES: N#C/C(=N\Nc1cccc(Cl)c1)C(=O)c1cc(-c2ccco2)on1
IC50 [1]: 9.9 µM

SMILES: CC(C)(C)c1ccc(-c2cc(C(=O)/C(C#N)=N/Nc3cc(C(F)(F)F)cc(C(F)(F)F)c3)no2)cc1
IC50 [1]: 11.9 µM

SMILES: N#C/C(=N\Nc1ccc(Cl)c(C(F)(F)F)c1)C(=O)c1cc(-c2ccco2)on1
IC50 [1]: 4.2 µM
IC50 [2]: 2.3 µM

SMILES: N#C/C(=N\Nc1ccc(F)c(Cl)c1)C(=O)c1noc2ccccc12
IC50 [1]: 8.5 µM

SMILES: N#C/C(=N\Nc1ccc(Cl)c(C(F)(F)F)c1)C(=O)c1cc(-c2ccc(Cl)cc2)on1
IC50 [1]: 7.8 µM

SMILES: CC(C)(C)c1ccc(-c2cc(C(=O)/C(C#N)=N/Nc3ccc(Cl)c(C(F)(F)F)c3)no2)cc1
IC50 [1]: 7.3 µM
IC50 [2]: 2.2 µM

SMILES: N#C/C(=N\Nc1cc(C(F)(F)F)cc(C(F)(F)F)c1)C(=O)c1cc(-c2ccccc2)on1
IC50 [1]: 7.2 µM
IC50 [2]: 3.3 µM

SMILES: N#C/C(=N\Nc1cc(F)cc(Cl)c1)C(=O)c1noc2ccccc12
IC50 [1]: 18.9 µM

SMILES: N#C/C(=N\Nc1ccc(Cl)c(C(F)(F)F)c1)C(=O)c1cc(-c2ccccc2)on1
IC50 [2]: 2.3 µM

SMILES: N#C/C(=N\Nc1cc(C(F)(F)F)cc(C(F)(F)F)c1)C(=O)c1noc2ccccc12
IC50 [1]: 6.7 µM

SMILES: N#C/C(=N\Nc1cc(Cl)cc(C(F)(F)F)c1)C(=O)c1cc(-c2ccccc2)on1
IC50 [1]: 9.5 µM

SMILES: CC(C)(C)c1ccc(-c2cc(C(=O)/C(C#N)=N/Nc3ccc(C(F)(F)F)c(Cl)c3)no2)cc1
IC50 [1]: 9 µM

Ratio IC50 [3]: 2.5
IC50 [2]: 4.4 µM
SMILES: CC(C)(C)c1cc(C(=O)/C(C#N)=N/Nc2cccc(Cl)c2)no1

SMILES: COc1ccc(-c2cc(C(=O)/C(C#N)=N/Nc3cccc(Cl)c3)no2)cc1
IC50 [1]: 11.4 µM

SMILES: N#C/C(=N\Nc1cccc(Cl)c1)C(=O)c1noc2ccccc12
IC50 [1]: 13.2 µM

IC50 [1]: 2.7 µM
SMILES: CC(C)(C)c1cc(C(=O)/C(C#N)=N/Nc2cc(Cl)c(Cl)c(Cl)c2)no1

SMILES: COc1ccc(-c2cc(C(=O)/C(C#N)=N/Nc3cc(C(F)(F)F)cc(C(F)(F)F)c3)no2)cc1
IC50 [1]: 5.6 µM
IC50 [2]: 7 µM
